Results as given in EPA's ToxValDB 9.5.
Several values for one entry are separate records, joined by “and”; a condition that tells them apart may be missing. Identical values can stand only once.

Key:
Oryctolagus sp. = conditions: acute
Rattus norvegicus [1] = conditions: for LC50 / LD50: acute
Rattus norvegicus [2] = conditions: subchronic; oral; gavage; M; Sprague-Dawley; Clinical Observation: Salivation + Histopathology: Stomach/forestomach- Squamous cell metaplasia Stomach/forestomach- Edema Stomach/…
Mus musculus = conditions: for LD50: acute
[3] = reproduction developmental, oral, gavage, F, Sprague-Dawley
[4] = short-term, duration: 27 days, oral, gavage, Sprague-Dawley
[5] = reproduction developmental, duration: 2 weeks, inhalation, Sprague-Dawley
[6] = subchronic, duration: 13 weeks, oral, gavage, F, B6C3F1
[7] = subchronic, duration: 13 weeks, oral, gavage, M, B6C3F1
[8] = developmental, duration: 10 days, oral, Wistar
[9] = developmental, duration: 128 days, oral, gavage, Wistar
[10] = reproduction developmental, duration: 10 days, oral, F, Wistar
[11] = reproduction developmental, duration: 27 days, oral, gavage, F, Wistar
[12] = reproduction developmental, duration: 27 days, oral, gavage, Wistar, generation: F1
[13] = reproduction developmental, duration: 86 days, oral, gavage, Wistar
[14] = reproduction developmental, duration: 128 days, oral, gavage, F, Wistar
[15] = reproduction developmental, duration: 128 days, oral, gavage, Wistar

CC(=O)Oc1cccc(Oc2ccc(C(F)(F)F)cc2Cl)c1 [2-Chloro-1-(3-acetoxyphenoxy)-4-(trifluoromethyl)benzene]
LD50 (Oryctolagus sp.; dermal, occlusive, New Zealand): > 200 mg/kg
LC50 (Rattus norvegicus [1]; Inhalation, Wistar): > 4.13 µg/mL
LD50 (Rattus norvegicus [1]; oral, Crj:CD): > 500 mg/kg

Cc1cc(C)c(O)c(C)c1 [2,4,6-Trimethylphenol]
NOEL (Rattus norvegicus [2]): 10 mg/kg-day
LD50 (Oryctolagus sp.; dermal, New Zealand): > 2000 mg/kg
LD50 (Rattus norvegicus [1]; oral, gavage): > 2000 mg/kg
NOAEL (Rattus norvegicus [1]; reproduction developmental, duration: 4 weeks, oral, gavage, F, Sprague-Dawley): ≥ 200 mg/kg-day
NOAEL (Rattus norvegicus [1]; reproduction developmental, duration: 4 weeks, oral, gavage, Sprague-Dawley, generation: F0): ≥ 200 mg/kg-day
NOAEL (Rattus norvegicus [1]; reproduction developmental, duration: 4 weeks, oral, gavage, Sprague-Dawley, generation: F1): ≥ 200 mg/kg-day

CCC(C)OP(=S)([S-])OC(C)CC(C)C.CCC(C)OP(=S)([S-])OC(C)CC(C)C.[Zn+2] (stereo not given)
LD50 (Oryctolagus sp.; dermal, New Zealand): > 5000 mg/kg
LD50 (Rattus norvegicus [1]; oral, gavage, Sprague-Dawley): ≥ 2900 mg/kg and ≤ 3400 mg/kg

CCCCCCC(=O)O [Heptanoic acid]
NOAEL (Mus musculus; chronic, duration: 80 weeks, dermal, C3H/HeCr): 50 mg
LD50 (Oryctolagus sp.; dermal, albino): ≥ 2000 mg/kg
LC50 (Rattus norvegicus [1]; Inhalation, Sprague-Dawley): > 4.6 µg/mL
LD50 (Rattus norvegicus [1]; oral): 8370 mg/kg
NOAEL (Rattus norvegicus [1]; developmental, duration: 9 days, oral, gavage, Sprague-Dawley): 1000 mg/kg-day
NOAEL (Rattus norvegicus [1]; reproduction developmental, duration: 9 days, oral, gavage, F, Sprague-Dawley): 1000 mg/kg-day
LOAEL (Rattus norvegicus [1]; [3]): > 1000 mg/kg-day
NOAEL (Rattus norvegicus [1]; [3]): < 200 mg/kg-day
NOAEL (Rattus norvegicus [1]; reproduction developmental, oral, gavage, Sprague-Dawley, generation: F1): ≥ 1000 mg/kg-day and ≤ 2000 mg/kg-day
LOAEL (Rattus norvegicus [1]; [4]): 3500 mg/kg-day
NOAEL (Rattus norvegicus [1]; [4]): 1750 mg/kg-day

CCCCOC(=O)CC [Butyl propionate]
LD50 (Oryctolagus sp.; dermal, occlusive, New Zealand): > 14000 mg/kg
LD50 (Oryctolagus sp.; dermal, occlusive, albino): > 14000 mg/kg
LD50 (Rattus norvegicus [1]; dermal, occlusive, Fischer 344): > 2000 mg/kg
LD50 (Rattus norvegicus [1]; oral, gavage, Fischer 344): > 5000 mg/kg
LC50 (Rattus norvegicus [1]; oral, gavage, Sprague-Dawley): 12300 mg/kg
LD50 (Rattus norvegicus [1]; oral, gavage, Sprague-Dawley): 11000 mg/kg
LD50 (Rattus norvegicus [1]; oral, gavage, Wistar): > 14000 mg/kg
NOAEL (Rattus norvegicus [1]; developmental, duration: 10 days, inhalation, Sprague-Dawley): ≥ 10600 mg/m3
LOAEL (Rattus norvegicus [1]; [5]): 13300 mg/m3
NOAEL (Rattus norvegicus [1]; [5]): 2660 mg/m3
LOAEL (Rattus norvegicus [1]; reproduction developmental, duration: 13 weeks, inhalation, Sprague-Dawley): 3990 mg/m3
LOAEL (Rattus norvegicus [1]; short-term, duration: 11 days, inhalation, Fischer 344): 4260 mg/m3

C=CC(=C)CCC=C(C)C [Myrcene]
LD50 (Mus musculus; oral, gavage, Swiss): 5060 mg/kg
LOAEL (Mus musculus; [6]): 500 mg/kg-day
NOAEL (Mus musculus; [6]): 250 mg/kg-day
LOAEL (Mus musculus; [7]): 1000 mg/kg-day
NOAEL (Mus musculus; [7]): 500 mg/kg-day
LD50 (Oryctolagus sp.; dermal, New Zealand): > 5000 mg/kg
LD50 (Rattus norvegicus [1]; oral, Wistar): > 5000 mg/kg
LD50 (Rattus norvegicus [1]; oral, gavage, Wistar): > 11400 mg/kg
LOAEL (Rattus norvegicus [1]; [8]): 1200 mg/kg-day
NOAEL (Rattus norvegicus [1]; [8]): 500 mg/kg-day
NOAEL (Rattus norvegicus [1]; developmental, duration: 27 days, oral, gavage, Wistar): 250 mg/kg-day
LOAEL (Rattus norvegicus [1]; [9]): 500 mg/kg-day
NOAEL (Rattus norvegicus [1]; [9]): 250 mg/kg-day
LOAEL (Rattus norvegicus [1]; [10]): 1200 mg/kg-day
NOAEL (Rattus norvegicus [1]; [10]): 500 mg/kg-day
LOAEL (Rattus norvegicus [1]; [11]): 1000 mg/kg-day
NOAEL (Rattus norvegicus [1]; [11]): 500 mg/kg-day
LOAEL (Rattus norvegicus [1]; [12]): 500 mg/kg-day
NOAEL (Rattus norvegicus [1]; [12]): 250 mg/kg-day
LOAEL (Rattus norvegicus [1]; [13]): 500 mg/kg-day
NOAEL (Rattus norvegicus [1]; [13]): 300 mg/kg-day
LOAEL (Rattus norvegicus [1]; [14]): 1000 mg/kg-day
NOAEL (Rattus norvegicus [1]; [14]): 500 mg/kg-day
LOAEL (Rattus norvegicus [1]; [15]): 500 mg/kg-day
NOAEL (Rattus norvegicus [1]; [15]): 250 mg/kg-day
NOAEL (Rattus norvegicus [1]; reproduction developmental, oral, gavage, Wistar): 300 mg/kg-day
LOAEL (Rattus norvegicus [1]; subchronic, duration: 13 weeks, oral, gavage, Fischer 344): 250 mg/kg-day

CCOP(=S)(S)OCC [Diethyl dithiophosphoric acid]
LD50 (Oryctolagus sp.; dermal, New Zealand): > 2000 mg/kg
LC50 (Rattus norvegicus [1]; inhalation): 1640 mg/m3
LD50 (Rattus norvegicus [1]; oral): 4510 mg/kg

CC(C)COP(=S)([S-])OCC(C)C.CC(C)COP(=S)([S-])OCC(C)C.[Zn+2]
LD50 (Oryctolagus sp.; dermal, New Zealand): > 20000 mg/kg
LD50 (Rattus norvegicus [1]; oral, gavage, Wistar): 3600 mg/kg

c1ccc2sc(SSc3nc4ccccc4s3)nc2c1 [2,2'-Dithiobisbenzothiazole]
LD50 (Mus musculus; injection, Intraperitoneal): 2250 mg/kg
LD50 (Mus musculus; injection, intravenous): 180 mg/kg
NOAEL (Mus musculus; developmental, oral, N strain): 10 mg/kg-day
LD50 (Oryctolagus sp.; oral): 6200 mg/kg
LD50 (Rattus norvegicus [1]; injection, Intraperitoneal): 3000 mg/kg and 2600 mg/kg
NOAEL (% diet) (Rattus norvegicus [1]; developmental, duration: 22 days, oral, diet, Wistar): 1
NOAEL (% diet) (Rattus norvegicus [1]; reproduction developmental, duration: 22 days, oral, diet, F, Wistar): 0.2
NOAEL (Rattus norvegicus [1]; reproduction developmental, oral, Wistar, hybrid, generation: F1): 10 mg/kg-day
NOAEL (Rattus norvegicus [1]; short-term, duration: 22 days, oral, diet, F, Wistar): 127 mg/kg-day
